Assay results taken from BindingDB's records for patent US11161864 (Venenum Biodesign, 2021).

Target: T1, Stimulator of interferon genes protein [154-378] (Mus musculus, UniProt Q3TBT3)
T1 construct: 154-378
T1 sequence (Q3TBT3 whole entry): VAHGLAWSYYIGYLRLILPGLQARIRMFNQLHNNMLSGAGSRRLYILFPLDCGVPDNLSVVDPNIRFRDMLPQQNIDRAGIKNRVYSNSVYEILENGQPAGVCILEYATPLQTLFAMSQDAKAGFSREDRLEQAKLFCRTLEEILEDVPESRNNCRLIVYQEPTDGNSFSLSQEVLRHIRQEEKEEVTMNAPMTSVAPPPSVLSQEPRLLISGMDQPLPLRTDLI
Test: Binding Assay

NC(=O)c1cnc2c(c1)nc1n2CCOP(=O)(S)OC[C@H]2O[C@@H](n3cnc4c(=O)[nH]c(N)nc43)[C@H](OP(=O)(S)OC1)[C@@H]2F (stereo partly specified) [US11161864, Example 37A]
IC50: < 1000 nM
